# Earlier results in publication PMC10814857, “Functional Classification and Interaction Selectivity Landscape of the Human SH3 Domain Superfamily” (Cells, 2024).
# Like-named read-outs stand apart in the source and are kept apart here.
# Assays:
# LCK SH3 domain = settings: FL, Table S4, ref [74]; cited from earlier work
# CD2AP-1 (CMS) SH3 domain = settings: SPR, Table S4, ref [50, 82]; cited from earlier work
# Text: page 7: […] E CD2AP-1 CD2 […] PX(P/A)XXR PXXXPR 100 SPR [50, (CMS) G 82] SH3KBP1- 1 (CIN85) 1 The underlined residues in the second column represent motifs associated with the published consensus PRMs, while the residues highlighted in green represent the proposed consensus PRM identified in the current study. 2 CD: Circular Dichroism Spectroscopy FL: fluorescence-based titrations; HSQC: Heteronuclear Single Quantum Coherence; ITC: Isothermal titration calorimetry; MST: microscale thermophoresis 7
# SPTAN1 SH3 domain = target: SPTAN1 SH3 domain; design: method as in ref [63] (a number printed in a supplementary file, which may have a reference list of its own: not looked up in the article's list); settings: SPTAN1, FL, Table S4; ref [63]; cited from earlier work
# ITSN1-2 SH3 domain = settings: ITSN1-2, ITC, Table S4; ref [29]; cited from earlier work
# Description: (§1) page 6: […] […] […] PAK2 […] PXXXPR PXXXPR 1.05 ITC [34] TRSVI ITSN1-2 Synthetic […] Exceptional [W/F][R/W]xSx[A/ 53 ITC [29] peptide G][F/Y][L/V]xGP[ W/L] NCK1-2 N-WASP GP[…] … 147 HSQC [64] VA[…] 199 PLCG1 SOS1 AAPV[…] … 0.20mM SPR [75] AADS[…] 0.40mM AAES[…] 0.70mM AAIA[…] 0.28mM BAIAP2L1 EspFUR45 IPP[…] … 0.5 nM ITC [76] (IRTKS) 9 SORBS2- Synthetic […] Exceptional XRXGXAYLXYVX 38 ITC [29] 1 peptide Synthetic RL[…](L/P) ...
# FYN SH3 domain [1] = target: FYN SH3 domain; design: method as in ref [20] (a number printed in a supplementary file, which may have a reference list of its own: not looked up in the article's list); settings: NMR, Table S4, ref [20]; cited from earlier work
# FYN SH3 domain [2] = target: FYN SH3 domain; design: method as in ref [20] (a number printed in a supplementary file, which may have a reference list of its own: not looked up in the article's list); settings: CD, Table S4, ref [20]; cited from earlier work
# FYN SH3 domain [3] = target: FYN SH3 domain; design: method as in ref [20] (a number printed in a supplementary file, which may have a reference list of its own: not looked up in the article's list); settings: ITC, Table S4, ref [20]; cited from earlier work
# FYN SH3 domain [4] = settings: SPR, Table S4, ref [72]; cited from earlier work
# HCK SH3 domain = settings: SPR, Table S4, ref [72]; cited from earlier work
# AMPH SH3 domain = settings: g-radiation, Table S4, ref [80]; cited from earlier work
# Description: as §1
# SNX9 SH3 domain = settings: cited from earlier work
# SH3PXD2B-1/2 SH3 domains [5] = target: SH3PXD2B-1/2 SH3 domains; design: method as in ref [68] (a number printed in a supplementary file, which may have a reference list of its own: not looked up in the article's list); settings: SH3PXD2B-1/2, MST, Table S4; ref [68]; cited from earlier work
# SH3PXD2B-1/2 SH3 domains [6] = target: SH3PXD2B-1/2 SH3 domains; design: method as in ref [68] (a number printed in a supplementary file, which may have a reference list of its own: not looked up in the article's list); settings: SH3PXD2B-1/2, FL, Table S4; ref [68]; cited from earlier work
# PACSIN1 SH3 domain = target: PACSIN1 SH3 domain; design: method as in ref [61] (a number printed in a supplementary file, which may have a reference list of its own: not looked up in the article's list); settings: PACSIN1, HSQC, Table S4; ref [61]; cited from earlier work
# PACSIN3 SH3 domain = target: PACSIN3 SH3 domain; design: method as in ref [61] (a number printed in a supplementary file, which may have a reference list of its own: not looked up in the article's list); settings: PACSIN3, HSQC, Table S4; ref [61]; cited from earlier work
# PACSIN2 SH3 domain = target: PACSIN2 SH3 domain; design: method as in ref [61] (a number printed in a supplementary file, which may have a reference list of its own: not looked up in the article's list); settings: PACSIN2, HSQC, Table S4; ref [61]; cited from earlier work
# CRK-1 SH3 domain = target: CRK-1 SH3 domain; design: method as in ref [70] (a number printed in a supplementary file, which may have a reference list of its own: not looked up in the article's list); settings: CRK-1, ITC, Table S4; ref [70]; cited from earlier work
# STAM2 SH3 domain = settings: STAM2, FL, Table S4; ref [52]; cited from earlier work
# Description: as §1
# p85A SH3 domain = target: p85A SH3 domain; design: method as in ref [62] (a number printed in a supplementary file, which may have a reference list of its own: not looked up in the article's list); settings: FL, Table S4, ref [62]; cited from earlier work
# [7] = target: BAIAP2L1 (IRTKS) SH3 domain; settings: ITC, Table S4, ref [76]; cited from earlier work
# Description: page 6: […][…] […] PAK2 […] PXXXPR PXXXPR 1.05 ITC [34] TRSVI ITSN1-2 Synthetic […] Exceptional [W/F][R/W]xSx[A/ 53 ITC [29] peptide G][F/Y][L/V]xGP[ W/L] NCK1-2 N-WASP GP[…] … 147 HSQC [64] VA[…] 199 PLCG1 SOS1 AAPV[…] … 0.20mM SPR [75] AADS[…] 0.40mM AAES[…] 0.70mM AAIA[…] 0.28mM BAIAP2L1 EspFUR45 IPP[…] … 0.5 nM ITC [76] (IRTKS) 9 SORBS2- Synthetic […] Exceptional XRXGXAYLXYVX 38 ITC [29] 1 peptide Synthetic RL[…](L/P) ...
substance,measurement,setting,value
ATLDPGMPTPPLPPRPANLG [published Tip peptide],Kd,LCK SH3 domain,16.8 µM
QKGPPLPRPRVQPKPPHG [published CD2 peptide],Kd,CD2AP-1 (CMS) SH3 domain,100 µM
ASYPPVPPP [published Peptide41 (SPTAN1 ligand)],Kd,SPTAN1 SH3 domain,160 µM
WRDSSGYVMGPW [published synthetic peptide (ITSN1-2 ligand)],Kd,ITSN1-2 SH3 domain,53 µM
PPRPLPVAPGSSKT [published peptide P2L],Kd,FYN SH3 domain [1],50 µM
same,Kd,FYN SH3 domain [2],28 µM
same,Kd,FYN SH3 domain [3],16 µM
PVRPQVPLRPMT [published Nef peptide],Kd,FYN SH3 domain [4],202 µM
same,Kd,HCK SH3 domain,91 µM
PSRPNR [published Dynamin-I peptide],Kd,AMPH SH3 domain,0.19 µM
AERLIPRRPAPPVPVPARIPSPR,Kd,SNX9 SH3 domain,0.3 µM
GSHMGDAKQRSPKMRQRPPPRRDMTIPRGLNLPKPPIPPQVE [published SH3PXD2B peptide],Kd,SH3PXD2B-1/2 SH3 domains [5],15 µM
same,Kd,SH3PXD2B-1/2 SH3 domains [6],11 µM
TKGPAPNPPPVLKV [published TRPV4 peptide],Kd,PACSIN1 SH3 domain,51.6 µM
same,Kd,PACSIN3 SH3 domain,68.6 µM
same,Kd,PACSIN2 SH3 domain,12.7 µM
DNSPPPALPPKKRQSAPS [published C3G peptide],Kd,CRK-1 SH3 domain,~2 µM
TPMVNRENKPP [published UBPY peptide],Kd,STAM2 SH3 domain,27 µM
RKLPPRPSK [published synthetic peptide (p85A ligand)],Kd,p85A SH3 domain,9.1 µM
IPPAPNWPAPTPP [published peptide EspFUR45],Kd,[7],0.0005 µM
